Results from US5650444A, “Substituted biphenyl derivatives” (American Home Products Corporation, priority 1995, dated 1997).

System: PDE IV
Assay: Test Procedure No. 2: functional inhibition of PDE IV (relaxation of guinea pig tracheal rings precontracted with carbachol)
Format: cell-based, guinea pig (male Hartley)
Settings: in presence of CI-930 (10 μM)
Description: The following standard test is also employed to assess the abilities of compounds to inhibit PDE IV functionally. […]
Tracheal relaxation resulting from the inhibition of PDE-IV or PDE-III was assessed by a method similar to that employed by Harris et al. (1989). […] The functional inhibition of PDE-IV or PDE-III was determined by adding a test compound to the tissue bath in cumulatively increasing concentrations and monitoring the degree of relaxation induced in the continued presence of CI-930 or rolipram (respectively). […] Percent relaxations produced by each concentration of test compound were calculated as a percentage relaxation of tension maintained in the presence of the preincubating PDE inhibitor, relative to the final resting tension determined at the end of each experiment. […]

COC(=O)c1cccc(-c2ccc(OC)c(OC3CCCC3)c2)c1 [Example 18, 3'-Cyclopentyloxy-4'-methoxy-biphenyl-3-carboxylic acid methyl ester]
IC50: 120 nM
